Results as given in paper PMC9027532, “Preclinical Pharmacokinetic Studies of a Novel Diuretic Inhibiting Urea Transporters” (Molecules, 2022).
Where “and” joins values, the source holds several entries; their conditions need not be identical. Equal values may be shown once.

Key:
[1] = Excretion experiment in bile duct cannulated rats (bile); assay type: in vivo, SD rats; settings: single oral dose 100 mg/kg
Procedure: The cumulative excretion ratios of unchanged 25a in the urine, feces, and bile of rats after a single oral dose at 100 mg/kg were 0.14% ± 0.05%, 3.16% ± 0.96%, and 0.018% ± 0.006%, respectively (Figure 6 and Tables S5–S7). […] Further phenotyping and metabolite identification studies should be conducted to elucidate the major elimination forms of 25a in the future.
Four SD rats were adapted in metabolic cages for 3 days in advance and then administrated with 25a at 100 mg/kg orally. Feces and urine were collected and weighed at 0–6 h, 6–12 h, […], 24–36 h, 36–48 h, 48–60 h, and 60–72 h after administration. Parallelly, four SD rats received bile duct cannulation and were given a single dose of 25a at 100 mg/kg orally. Bile was collected and weighed at 0–2 h, 0–4 h, 0–6 h, 0–8 h, 0–10 h, 0–12 h, 0–24 h, 0–36 h, and 0–48 h after administration. All samples were stored at −80 °C until analysis.

[2] = Plasma protein binding by equilibrium dialysis, human plasma; assay type: in vitro ADME; settings: human, plasma
Procedure: (§1) The plasma protein binding (PPB) and blood plasma ratio (BPR) are crucial parameters influencing the drug distribution and elimination in plasma. The PPB profile of 25a was evaluated by equilibrium dialysis, a classic method to assess the interactions of small molecules with proteins. The PPB of 25a was tested at 50, 500, and 2500 ng/mL (Table 7). […] When considering the allometric scaling of PK parameters, the species difference of protein binding between humans and rats should be considered.
(§2) The plasma protein binding (PPB) ratio of 25a was assessed via equilibrium dialysis in SD rats and human plasma. Four hundred microliters of plasma containing 50, 500, or 2500 ng/mL 25a were loaded into the dialysis bags (plasma side), and the bags were placed into tubes containing 4 mL of the dialysis buffer (buffer side). The tubes were then rotated at approximately 100 rpm in a humidified incubator with 5% CO2 at 37 ± 1 °C for 5 h.
(§3) After the 5 h dialysis, aliquots of 50 μL samples were taken from both the buffer and the plasma sides. An equal volume of the opposite blank matrix (buffer or plasma) was added to each sample to reach a final volume of 100 μL with a volume ratio of plasma to dialysis buffer at 1:1 (v/v). All samples were further processed by adding 600 μL of stop solution (containing 10 ng/mL IS) to precipitate protein for LC–MS/MS analysis. The PPB ratio (%) was calculated by PPB% = 100% × (1 − Conc.buffer side/Conc.plasma side).

plasma protein = test: as above; assay type: in vitro ADME; settings: human plasma, 50, 500, 2500 ng/mL
Procedure: as §1, §2, §3

CC(=O)Nc1ccc(NC(=O)c2ccc(C(C)=O)o2)cc1 [Compound 25a, N-(4-acetamidophenyl)-5-acetylfuran-2-carboxamide]
Accumulated Amount in bile ([1]; 0-2 h): 0.531 ± 0.233 µg
Concentration in bile ([1]; 0-2 h): 220.5 ± 44.4 ng/mL
The cumulative excretion ratio in bile ([1]; 0-2 h): 0.0022 ± 0.0011%
Accumulated Amount in bile ([1]; 0-4 h): 1.138 ± 0.434 µg
Concentration in bile ([1]; 0-4 h): 192.3 ± 52.3 ng/mL
The cumulative excretion ratio in bile ([1]; 0-4 h): 0.0048 ± 0.0022%
Accumulated Amount in bile ([1]; 0-6 h): 1.451 ± 0.481 µg
Concentration in bile ([1]; 0-6 h): 161.3 ± 55.4 ng/mL
The cumulative excretion ratio in bile ([1]; 0-6 h): 0.0061 ± 0.0023%
Accumulated Amount in bile ([1]; 0-8 h): 1.783 ± 0.489 µg
Concentration in bile ([1]; 0-8 h): 169.5 ± 57.2 ng/mL
The cumulative excretion ratio in bile ([1]; 0-8 h): 0.0074 ± 0.0023%
Accumulated Amount in bile ([1]; 0-10 h): 2.215 ± 0.603 µg
Concentration in bile ([1]; 0-10 h): 156.8 ± 23.8 ng/mL
The cumulative excretion ratio in bile ([1]; 0-10 h): 0.0092 ± 0.0026%
Accumulated Amount in bile ([1]; 0-12 h): 2.888 ± 0.929 µg
Concentration in bile ([1]; 0-12 h): 147.3 ± 27.7 ng/mL
The cumulative excretion ratio in bile ([1]; 0-12 h): 0.0120 ± 0.0043%
Accumulated Amount in bile ([1]; 0-24 h): 3.664 ± 1.010 µg
Concentration in bile ([1]; 0-24 h): 83.5 ± 19.9 ng/mL
The cumulative excretion ratio in bile ([1]; 0-24 h): 0.0152 ± 0.0045%
Accumulated Amount in bile ([1]; 0-36 h): 4.113 ± 1.058 µg
Concentration in bile ([1]; 0-36 h): 40.7 ± 21.1 ng/mL
The cumulative excretion ratio in bile ([1]; 0-36 h): 0.0171 ± 0.0049%
Accumulated Amount in bile ([1]; 0-48 h): 4.300 ± 1.184 µg
Concentration in bile ([1]; 0-48 h): 17.9 ± 17.1 ng/mL
The cumulative excretion ratio in bile ([1]; 0-48 h): 0.0179 ± 0.0057%
cumulative excretion ratio of unchanged 25a in bile ([1]; 100 mg/kg): 0.018% and 0.018% ± 0.006%
fraction unbound at 5 h, 50 ng/mL ([2]; human plasma, 50 ng/mL): 0.559
fraction unbound at 5 h, 500 ng/mL ([2]; human plasma, 500 ng/mL): 0.612
fraction unbound at 5 h, 2500 ng/mL ([2]; human plasma, 2500 ng/mL): 0.595
fraction unbound at 5 h ([2]; human plasma, 50, 500, 2500 ng/mL, read-out: mean plasma protein binding (PPB) (converted)): ~0.6
mean plasma protein binding (PPB) (plasma protein): 38.8%–44.1%
